# Test results as given in the Kinase Knowledgebase extract (Sharma et al. 2016).
# Target: PIK3CG (human) (UniProt P48736)
# Assay: Assessment of PIK3CG Kinase Activity
# Chain of PIK3CG (human) (P48736 whole entry, looked up): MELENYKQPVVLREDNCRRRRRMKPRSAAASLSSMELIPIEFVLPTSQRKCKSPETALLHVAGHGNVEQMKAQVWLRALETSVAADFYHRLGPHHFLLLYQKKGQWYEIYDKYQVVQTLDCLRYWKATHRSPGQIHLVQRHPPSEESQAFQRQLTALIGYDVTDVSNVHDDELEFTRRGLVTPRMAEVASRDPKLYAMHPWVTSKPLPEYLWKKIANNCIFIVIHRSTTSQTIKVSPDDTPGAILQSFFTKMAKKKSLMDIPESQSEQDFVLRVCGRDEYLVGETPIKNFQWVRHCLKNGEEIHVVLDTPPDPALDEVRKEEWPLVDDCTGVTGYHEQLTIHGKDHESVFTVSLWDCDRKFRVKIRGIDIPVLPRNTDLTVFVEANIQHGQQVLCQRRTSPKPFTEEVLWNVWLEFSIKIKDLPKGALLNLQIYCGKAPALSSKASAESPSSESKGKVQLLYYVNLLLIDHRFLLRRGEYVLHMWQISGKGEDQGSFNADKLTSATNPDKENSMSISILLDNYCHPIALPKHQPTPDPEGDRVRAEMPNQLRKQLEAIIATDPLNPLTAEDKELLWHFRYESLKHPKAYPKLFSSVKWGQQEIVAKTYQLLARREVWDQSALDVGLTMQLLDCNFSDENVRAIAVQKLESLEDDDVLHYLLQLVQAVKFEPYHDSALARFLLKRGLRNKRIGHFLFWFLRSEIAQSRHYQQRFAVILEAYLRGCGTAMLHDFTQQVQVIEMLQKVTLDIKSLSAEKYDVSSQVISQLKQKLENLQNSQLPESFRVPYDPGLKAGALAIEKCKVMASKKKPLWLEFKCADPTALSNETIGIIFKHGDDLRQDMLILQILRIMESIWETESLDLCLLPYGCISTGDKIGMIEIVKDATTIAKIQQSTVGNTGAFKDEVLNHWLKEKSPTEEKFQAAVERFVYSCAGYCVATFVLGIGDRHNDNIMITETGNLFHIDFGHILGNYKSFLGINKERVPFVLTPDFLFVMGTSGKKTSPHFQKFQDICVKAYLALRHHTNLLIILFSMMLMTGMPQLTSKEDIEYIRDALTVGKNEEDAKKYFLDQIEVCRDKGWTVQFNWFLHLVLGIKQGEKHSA
row,IC50 [nM],Structure (SMILES)
1,< 800,CC(=O)Nc1nc2c(s1)-c1c(cnn1-c1ccc(O)c(Cl)c1)CC2
2,< 800,CN(C)CCN(C)C(=O)Nc1nc2c(s1)-c1c(cnn1-c1ccccc1Cl)C2
3,< 800,CC(=O)Nc1nc2c(s1)-c1c(cnn1-c1ccc(C(=O)N3CCC(N4CCOCC4)CC3)cc1)CC2
4,< 800,CC(=O)Nc1nc2c(s1)-c1c(cnn1-c1ccc(CC(=O)NCCN3CCNC3=O)cc1)CC2
5,< 800,CC(=O)Nc1nc2c(s1)-c1nc(Cc3c(Cl)cccc3Cl)ncc1CC2
6,< 800,CC(=O)Nc1nc2c(s1)-c1c(cnn1-c1ccc(C(=O)N3CCC4(CC3)CNC(=O)O4)cc1)CC2
7,< 800,CC(=O)Nc1nc2c(s1)-c1c(cnn1-c1ccc(C(=O)N(C)Cc3ccccn3)cc1)CC2
8,< 800,CC(=O)Nc1nc2c(s1)-c1c(cnn1-c1ccc(C(=O)N3CCC[C@@H]3C(N)=O)cc1)CC2
9,< 800,CC(=O)Nc1nc2c(s1)-c1c(cnn1-c1ccc(C(=O)N3CCC(N4CCNC4=O)CC3)cc1)CC2
10,< 800,COCc1nn(-c2ccc(C(=O)NCc3ccncc3)cc2Cl)c2c1CCc1nc(NC(C)=O)sc1-2
11,< 800,CC(=O)Nc1nc2c(s1)-c1c(c([C@H]3CCCO3)nn1-c1ccccc1C(F)(F)F)CC2
12,< 800,CCCn1cc2c(n1)-c1sc(NC(C)=O)nc1CC2
13,< 800,COc1ccccc1-n1ncc2c1-c1sc(NC(C)=O)nc1CC2
14,< 800,CC(=O)Nc1nc2c(s1)-c1c(cnn1-c1ccc(C(=O)NC3CCC4(CC3)OCCO4)cc1)CC2
15,< 800,CN(C)CCCC(=O)Nc1nc2c(s1)-c1c(c(-c3ccccc3)nn1-c1ccccc1Cl)CC2
16,< 800,CC(=O)Nc1nc2c(s1)-c1c(cnn1-c1ccc(C(=O)NCCC(=O)O)cc1)CC2
17,< 800,CC(=O)Nc1nc2c(s1)-c1c(c(C#C[Si](C)(C)C)nn1-c1ccccc1Cl)CC2
18,< 800,CC(=O)Nc1nc2c(s1)-c1nc(-c3ccccc3Cl)nc(O)c1CC2
19,< 800,CC(=O)Nc1nc2c(s1)-c1c(cnn1-c1ccc(C(=O)N[C@@H](Cc3cc4ccccc4[nH]3)C(N)=O)cc1Cl)CC2
20,< 800,CC(=O)Nc1nc2c(s1)-c1nc(C)ncc1CC2
21,< 800,CC(=O)Nc1nc2c(s1)-c1c(cnn1-c1ccc(CC(=O)NC3CCOC3=O)cc1)CC2 (configuration not stated)
22,< 800,C#CCN(C(=O)OC(C)(C)C)c1ncc2c(n1)-c1sc(NC(C)=O)nc1CC2
23,< 800,COc1ccccc1-n1nc(-c2ccco2)c2c1-c1sc(NC(C)=O)nc1CC2
24,< 800,CC(=O)Nc1nc2c(s1)-c1nc(N3CCOCC3)ncc1C2
25,< 800,CN(C)CCCC(=O)Nc1nc2c(s1)-c1nc(-c3ccccc3)ncc1CC2

row,IC50 [nM],Structure (SMILES)
1,< 800,CN(C)C(=O)Nc1nc2c(s1)-c1c(cnn1-c1ccccc1)C2
2,< 800,COC(=O)c1nn(-c2c(Cl)cccc2Cl)c2c1CCc1nc(NC(C)=O)sc1-2
3,< 800,CC(=O)Nc1nc2c(s1)-c1c(c(-c3ccco3)nn1-c1ccc(C(=O)NC3CCN(C)CC3)cc1Cl)CC2
4,< 800,CC(=O)Nc1nc2c(s1)-c1c(cnn1-c1ccc(C(=O)N[C@H]3CC[C@H](NC(=O)Cc4ccccc4)CC3)cc1)CC2
5,< 800,CN(C)c1ncc2c(n1)-c1sc(NC(N)=O)nc1CC2
6,< 800,CC(=O)Nc1nc2c(s1)-c1c(c(C(=O)N3CCSC3)nn1-c1ccccc1)CC2
7,< 800,CC(=O)Nc1ccc2c(c1)-c1sc(NC(C)=O)nc1CC2
8,< 800,CNC(=O)Nc1nc2c(s1)-c1nc(-c3ccccc3)ncc1CC2
9,< 800,CC(=O)Nc1nc2c(s1)-c1c(c(-c3ccco3)nn1-c1ccc(C(=O)N(C)C)cc1Cl)CC2
10,< 800,CC(=O)Nc1nc2c(s1)-c1c(cnn1-c1ccc(CC(=O)N(C)CC(=O)N3CCOCC3)cc1)CC2
11,< 800,CC(=O)Nc1nc2c(s1)-c1nn(-c3ccccc3Cl)c(-c3cn(C)cn3)c1CC2
12,< 800,CN1CCN(C(=O)Nc2nc3c(s2)-c2c(cnn2-c2ccccc2)C3)CC1
13,< 800,Cc1ccccc1-n1ncc2c1C1SC(N)=NC1C2 (configuration not stated)
14,< 800,CC(=O)Nc1nc2c(s1)-c1c(cnn1-c1ccc(CC(=O)N3CCCC(O)C3)cc1)CC2 (configuration not stated)
15,< 800,CC(=O)Nc1nc2c(s1)-c1c(cnn1-c1ccc(CC(=O)N3CCCC3c3ccccn3)cc1)CC2 (configuration not stated)
16,< 800,CC(=O)Nc1nc2c(s1)-c1c(cnn1-c1ccc(C(=O)N[C@H](CC(C)C)C(N)=O)cc1Cl)CC2
17,< 800,CC[C@H](NC(=O)c1ccc(-n2ncc3c2-c2sc(NC(C)=O)nc2CC3)c(Cl)c1)C(N)=O
18,< 800,CC(=O)Nc1nc2c(s1)-c1c(cnn1-c1ccc(C(=O)N3CCC(C(N)=O)CC3)cc1)CC2
19,< 800,CC(=O)Nc1nc2c(s1)-c1c(cnn1-c1ccc(CC(=O)N[C@@H]3CCOC3=O)cc1)CC2
20,< 800,CC(=O)Nc1nc2c(s1)-c1c(cnn1-c1ccc(CC(=O)NCCCN(C)C)cc1)CC2
21,< 800,COc1ccccc1-c1ncc2c(n1)-c1sc(NC(C)=O)nc1CC2
22,< 800,CC(=O)Nc1nc2c(s1)-c1c(c(-c3ccoc3)nn1-c1ccccc1)CC2
23,< 800,CC(=O)Nc1nc2c(s1)-c1c(c(-c3ccccc3)nn1-c1ccccc1Cl)CC2
24,< 800,CC(=O)Nc1nc2c(s1)-c1c(cnn1-c1ccc(CC(=O)N3CCc4cn[nH]c4C3)cc1)CC2
25,< 800,CC(=O)Nc1nc2c(s1)-c1c(cnn1-c1ccc(C(=O)N[C@H]3CC[C@@H](N4C[C@@H](C)O[C@@H](C)C4)CC3)cc1)CC2

row,IC50 [nM],Structure (SMILES)
1,< 800,CC(=O)Nc1nc2c(s1)-c1c(cnn1-c1cccc3ccccc13)CC2
2,< 800,CC(=O)Nc1nc2c(s1)-c1c(cnn1-c1ccc(C(=O)NCc3ccc(C(N)=O)cc3)cc1)CC2
3,< 800,CC(=O)Nc1nc2c(s1)-c1c(cnn1-c1ccc(CC(=O)NCc3nc4ccccc4[nH]3)cc1)CC2
4,< 800,CC(=O)Nc1nc2c(s1)-c1c(cnn1-c1ccc(CC(=O)N3CCC4(CC3)CNC(=O)O4)cc1)CC2
5,< 800,CC(=O)Nc1nc2c(s1)-c1c(cnn1-c1ccc(C(=O)N[C@@H](Cc3ccc4ccccc4c3)C(N)=O)cc1Cl)CC2
6,< 800,CC(=O)Nc1nc2c(s1)-c1nn(C(C)=O)cc1CC2
7,< 800,CC(=O)Nc1nc2c(s1)-c1c(cnn1-c1ccc(C(=O)NC(C)(C)CN3CCN(C)CC3)cc1)CC2
8,< 800,CC(=O)Nc1nc2c(s1)-c1c(cnn1-c1ccccc1F)C2
9,< 800,CC(=O)Nc1nc2c(s1)-c1c(cnn1-c1ccc(S(=O)(=O)N3CCN(C)CC3)cc1)CC2
10,< 800,CC(=O)Nc1nc2c(s1)-c1c(cnn1-c1ccc(C(=O)NCCO)cc1)CC2
11,< 800,CC(=O)Nc1nc2c(s1)-c1c(c([C@H]3CCCO3)nn1-c1ccc(C(=O)N(C)Cc3ccncc3)cc1Cl)CC2
12,< 800,CNCCNC(=O)Nc1nc2c(s1)-c1nc(-c3ccccc3)ncc1CC2
13,< 800,COc1cccc(-n2ncc3c2-c2sc(NC(C)=O)nc2CC3)c1
14,< 800,CC(=O)Nc1nc2c(s1)-c1c(cnn1-c1ccc(C(=O)N[C@H]3CC[C@H](N4CCCCC4)CC3)cc1)CC2
15,< 800,CC(=O)Nc1nc2c(s1)-c1c(cnn1-c1ccccc1Br)CC2
16,< 800,CC(=O)Nc1nc2c(s1)-c1c(cnn1-c1cccc(Cl)c1)C2
17,< 800,CC(=O)Nc1nc2c(s1)-c1c(c(-c3ccco3)nn1-c1ccc(C(N)=O)cc1Cl)CC2
18,< 800,CC(=O)Nc1nc2c(s1)-c1c(cnn1-c1ccc(C(=O)N3CCC(N4CCOCC4)CC3)cc1Cl)CC2
19,< 800,CC(=O)Nc1nc2c(s1)-c1c(cnn1-c1ccc(C(=O)NCCc3c[nH]cn3)cc1)CC2
20,< 800,CC(=O)Nc1nc2c(s1)-c1c(cnn1-c1ccc(C)cc1)C2
21,< 800,CC(=O)Nc1nc2c(s1)-c1c(cnn1-c1ccc(CC(=O)N3CCC(O)CC3)cc1)CC2
22,< 800,COC(=O)c1nn(-c2ccccc2Cl)c2c1CCc1nc(NC(C)=O)sc1-2
23,< 800,CNC(=O)Nc1nn(-c2ccccc2Cl)c2c1CCc1nc(NC(C)=O)sc1-2
24,< 800,CC(=O)Nc1nc2c(s1)-c1c(cnn1-c1ccc(C(=O)NCc3ncc[nH]3)cc1)CC2
25,< 800,NNC(=O)Nc1nc2c(s1)-c1c(cnn1-c1ccccc1)CC2

row,IC50 [nM],Structure (SMILES)
1,< 800,CC(=O)Nc1nc2c(s1)-c1c(cnn1-c1ncccn1)CC2
2,< 800,CC(=O)Nc1nc2c(s1)-c1c(cnn1-c1ccc(CC(=O)N(C)Cc3ccccn3)cc1)CC2
3,< 800,CC(=O)Nc1nc2c(s1)-c1cc(NC(C)C)ccc1CC2
4,< 800,CC(=O)Nc1nc2c(s1)-c1c(cnn1-c1ccc(CC(=O)Nc3cc(O)[nH]n3)cc1)CC2
5,< 800,CC(=O)Nc1nc2c(s1)-c1c(cnn1-c1ccc(C(=O)N[C@H]3CC[C@@H](N4CCOCC4)CC3)cc1)CC2
6,< 800,CC(=O)Nc1nc2c(s1)-c1c(cnn1-c1ccc(C(=O)NCc3nc4ccccc4n3C)cc1)CC2
7,< 800,CC(=O)Nc1nc2c(s1)-c1c(cnn1-c1ccc(S(N)(=O)=O)cc1)CC2
8,< 800,CC(=O)Nc1nc2c(s1)-c1c(cnn1-c1ccc(C(=O)N3CCN(CCO)CC3)cc1)CC2
9,< 800,CC(=O)Nc1nc2c(s1)-c1c(c(-c3ccco3)nn1-c1ccc(C(=O)N[C@H]3CC[C@@H](N4CCCC4)CC3)cc1Cl)CC2
10,< 800,COc1ccc(-n2ncc3c2-c2sc(NC(C)=O)nc2CC3)cc1
11,< 800,CC(=O)Nc1nc2c(s1)-c1c(cnn1-c1ccc(CC(=O)NCC#Cc3ccncc3)cc1)CC2
12,< 800,CC(=O)Nc1nc2c(s1)-c1c(cnn1C)CC2
13,< 800,CC(=O)Nc1nc2c(s1)-c1c(c(-c3ccco3)nn1-c1ccccc1C)CC2
14,< 800,CCC(=O)Nc1nc2c(s1)-c1c(cnn1-c1ccccc1)CC2
15,< 800,CC(=O)Nc1nc2c(s1)-c1c(c(C(C)C)nn1-c1ccccc1Br)CC2
16,< 800,CC(=O)Nc1nc2c(s1)-c1cc(NC(=O)C(C)C)ccc1CC2
17,< 800,CC(=O)Nc1nc2c(s1)-c1c(cnn1-c1ccncc1)CC2
18,< 800,CC(=O)Nc1nc2c(s1)-c1c(cnn1-c1ccc(C(=O)N[C@H](C(N)=O)c3ccccc3)cc1Cl)CC2
19,< 800,NC(=O)[C@@H]1CCCN1CC(=O)Nc1nc2c(s1)-c1c(cnn1-c1ccccc1)CC2
20,< 800,COc1ccc(-n2ncc3c2-c2sc(NC(C)=O)nc2CCC3)cc1
21,< 800,CC(=O)Nc1nc2c(s1)-c1c(cnn1-c1ccc(C(=O)N(C)CC(=O)N(C)C)cc1)CC2
22,< 800,CC(=O)Nc1nc2c(s1)-c1c(c(-c3ccco3)nn1-c1cccc(Cl)c1)CC2
